# Assays:
# [1] = system: rat aortic rings; test: Sodium nitroprusside-induced relaxation of phenylephrine-precontracted rat aortic rings
# Experimental: For assessment of the effect of CFZ on vascular relaxation, the pre-treated aortic rings were incubated with 1 μM PE for 20 minutes to induce contraction. For experiments involving sildenafil and tadalafil, a 10-minute pre-treatment with 30 nM of these smooth muscle relaxants was done prior to the incubation with CFZ. After reaching a stable contraction, ACh, sodium nitroprusside (SNP), nifedipine, riociguat, or cinaciguat was added to the chamber at an increasing concentration from 100 pM to 10 μM; each stepwise concentration increase was added after the response to the current concentration reached a plateau. The relaxation was continuously measured and plotted as percent relaxation normalized to the response with 1 μM PE.
# Aortas were isolated from 8-10 week old CD® (Sprague Dawley) rats (from Charles River Laboratories) in an ice-cold, oxygenated (95% O2, 5% CO2) Krebs-Henseleit buffer. The aortas were then carefully cleaned to remove perivascular fat and cut into 2-mm rings that were mounted between two stainless steel wires in the myograph chamber containing 8 mL of Krebs-Henseleit buffer in 95% O2 and 5% CO2 at 37° C. Rings were stretch until a final stretch of 10 mN (Newton) was reached and incubated for 30 mins for equilibration.
# [2] = Highest applicable CFZ concentration in the myograph chamber (saturation, precipitation); type: physicochemical; settings: oxygenated myograph chamber, Krebs-Henseleit buffer
# [3] = system: rat aortic rings; test: Nifedipine-induced relaxation of rat aortic rings; settings: pretreatment of aortic rings with CFZ (FIG. 2C)
# Experimental: An isometric myograph (DMT 620M) was used for ex vivo measurement of vascular function. Eight-to 10-week old Sprague Dawley rats (purchased from Charles River Laboratories, Wilmington, MA) were first anesthetized with 3% isoflurane and then euthanized using inhaled desflurane. The aortas were isolated in an ice-cold, oxygenated (95% O2, 5% CO2) Krebs-Henseleit buffer (118.3 mM NaCl, 4.7 mM KCl, 1.2 mM MgSO4, 1.2 mM KH2PO4, 2.5 mM CaCl2, 25 mM NaHCO3, and 11.0 mM glucose; purchased from Sigma-Aldrich, St. Louis, MO). […] The tension of the aortic rings was continuously measured with the Lab Chart 7 data acquisition system (ADInstruments, Colorado Springs, CO). […]
# To assess the effect of CFZ on vascular contraction, the aortic rings were pre-treated with or without CFZ for 2 hours, followed by treatment with an increasing concentration of phenylephrine (PE) from 10 nM to 1 μM. […] The contraction was continuously measured and plotted as percent contraction normalized to the response of KPSS. […] The relaxation was continuously measured and plotted as percent relaxation normalized to the response with 1 μM PE.
# [4] = system: rat aortic rings; test: Angiotensin induced contraction (AUC) of rat aortic rings; settings: LNAME+indomethacin, 2.7 μM CFZ 1.5 hour, 30 nM Angiotensin 30 min (FIG. 11)
# Experimental: Aortas were isolated from 8-10 week old CD® (Sprague Dawley) rats (from Charles River Laboratories) in an ice-cold, oxygenated (95% O2, 5% CO2) Krebs-Henseleit buffer. The aortas were then carefully cleaned to remove perivascular fat and cut into 2-mm rings that were mounted between two stainless steel wires in the myograph chamber containing 8 mL of Krebs-Henseleit buffer in 95% O2 and 5% CO2 at 37° C. Rings were stretch until a final stretch of 10 mN (Newton) was reached and incubated for 30 mins for equilibration. The rings were constricted with 8 mL of 80 mM KPSS for 15 minutes, followed by 3 washes with the Krebs-Henseleit buffer until the force returned to the baseline stretch. The aorta were then treated for one of the following experiments: • For protein expression studies the aortic rings were pre-treated with 100 μM N(gamma)-nitro-L-arginine methyl ester (L-NAME; Sigma-Aldrich) and 10 μM indomethacin for 10 minutes prior to the pre-incubation with CFZ (Amgen Inc.) for 1.5 hours.
# Following the two incubation the rings were treated with either vehicle or 2.7 μM CFZ for further 1.5 hours before addition of 30 nM Angiotensin for 30 min. Angiotensin induced transient contraction which returned to the baseline in 30 mins. Area Under the Curve (AUC) of angiotensin induced contraction was measured.
# Aortic rings were incubated for 10 min with 100 μM LNAME+10 μM indomethacin (endothelium derived relaxing agents blockers) for 10 mins followed by addition of 10 μM SB 203580 (p38 inhibitor) or PF3644022 (MAPKAPK-2 inhibitor) in some rings for 10 more mins as indicated. This was followed by addition of 2.7 μM CFZ in some rings as indicated for 1.5 hour. 30 nM Angiotensin was added for 30 min. Angiotensin induced transient contraction which returned to the baseline in 30 mins.
# [5] = system: eNOS; test: Western blot of phosphorylated eNOS and eNOS in mouse endothelial cells; type: cell-based; settings: different concentrations of CFZ (FIG. 3A)
# Experimental: Protein levels of eNOS were unable to be assessed in rat endothelial cells; therefore, endothelial cells from mice were used. Mouse coronary endothelial cells (Cell Biologics) at passage 7 were seeded at 50,000 cells per well with 200 μL of endothelial cell media (Cell Biologics) in 96-well plates for 24 hours at 37° C. in 5% CO2. Some cells were pretreated with 100 μM L-NAME for 1 hour before adding 10 μM ACh. Cells were further treated with 0.3, 0.9, or 2.7 μM of CFZ or its vehicle for an additional 48 hours. The supernatant was collected and the amount of NO was assessed following the manufacturer's protocol for the colorimetric Nitric Oxide Assay Kit (Abcam, Cambridge, MA).
# Each cell pellet was lysed in 50 to 70 μL RIPA buffer (Cell Signaling Technology, Danvers, MA) with the Halt™ protease and phosphatase inhibitor cocktail (Thermo Fisher Scientific). Lysates were quantitated and loaded onto the Li-COR Western blot system. Antibodies specific to phosphorylated eNOS and eNOS from Thermo Fisher Scientific, anti-Guanylyl Cyclase β1 (ER-19) (Sigma-Aldrich), and β-Actin (Sigma-Aldrich) were diluted 1:1000 for Western blot. Antibodies specific to p-VASP, VASP, and GADPH-HRP were purchased from Cell Signaling Technology.
# [6] = system: rat aortic rings; test: Basal vascular tone of isolated rat aortic rings, isometric myograph
# Experimental: An isometric myograph (DMT 620M) was used for ex vivo measurement of vascular function. Eight-to 10-week old Sprague Dawley rats (purchased from Charles River Laboratories, Wilmington, MA) were first anesthetized with 3% isoflurane and then euthanized using inhaled desflurane. The aortas were isolated in an ice-cold, oxygenated (95% O2, 5% CO2) Krebs-Henseleit buffer (118.3 mM NaCl, 4.7 mM KCl, 1.2 mM MgSO4, 1.2 mM KH2PO4, 2.5 mM CaCl2, 25 mM NaHCO3, and 11.0 mM glucose; purchased from Sigma-Aldrich, St. Louis, MO). The thoracic aorta was carefully cleaned to remove perivascular fat and cut into 2-mm rings that were mounted between two stainless steel wires in the myograph chamber containing 8 mL of Krebs-Henseleit buffer in 95% O2 and 5% CO2 at 37° C. First, the rings were equilibrated in the chamber for 20 minutes, followed by a gradual increase of mechanical stretch until a final stretch of 10 mN (Newton) was reached. After an additional incubation with fresh buffer for 30 minutes, the rings were constricted with 8 mL of 80 mM KPSS (43 mM NaCl, 80 mM KCl, 2.5 mM CaCl2, 1.2 mM MgSO4, 1.2 mM KH2PO4, 25.0 mM NaHCO3, and 11.0 mM glucose) for 15 to 20 minutes, followed by 3 washes with the Krebs-Henseleit buffer until the force returned to the baseline stretch. The tension of the aortic rings was continuously measured with the Lab Chart 7 data acquisition system (ADInstruments, Colorado Springs, CO). In Some of the experiments the aortic rings were pre-treated with 100 μM N(gamma)-nitro-L-arginine methyl ester (L-NAME; Sigma-Aldrich) and 10 μM indomethacin for 10 minutes prior to the pre-incubation with CFZ (Amgen Inc.) for 2 hours. After an additional incubation with fresh buffer for 30 minutes, the rings were constricted with 8 mL of 80 mM KPSS (43 mM NaCl, 80 mM KCl, 2.5 mM CaCl2, 1.2 mM MgSO4, 1.2 mM KH2PO4, 25.0 mM NaHCO3, and 11.0 mM glucose) for 15 to 20 minutes, followed by 3 washes with the Krebs-Henseleit buffer until the force returned to the baseline stretch. The tension of the aortic rings was continuously measured with the Lab Chart 7 data acquisition system (ADInstruments, Colorado Springs, CO).
# To assess the effect of CFZ on vascular contraction, the aortic rings were pre-treated with or without CFZ for 2 hours, followed by treatment with an increasing concentration of phenylephrine (PE) from 10 nM to 1 μM. After the maximum contraction was achieved, the aortic rings were washed 3 times until the force returned to baseline. The contraction was continuously measured and plotted as percent contraction normalized to the response of KPSS. […] The relaxation was continuously measured and plotted as percent relaxation normalized to the response with 1 μM PE. […]
structure (smiles),measurement,setting,value
"CC(C)C[C@H](NC(=O)[C@H](CCc1ccccc1)NC(=O)CN1CCOCC1)C(=O)N[C@@H](Cc1ccccc1)C(=O)N[C@@H](CC(C)C)C(=O)[C@@]1(C)CO1 [CFZ, carfilzomib]","EC50 for SNP-induced relaxation, CFZ alone","[1]; FIG. 5A experiment, vehicle alone 7.2×10^−9",1.7×10^−8
same,EC50 for SNP-induced relaxation in the presence of L-NAME and indomethacin,"[1]; in the presence of CFZ 2.7 μM, vehicle alone 1.8×10^−8",4.3×10^−8
same,effect on SNP-induced relaxation,"[1]; rings pretreated with CFZ, increasing SNP (FIG. 2B)",appeared to interfere with SNP-induced relaxation
same,highest CFZ concentration that could be applied; further increase gave saturated solution and precipitation,[2],2.7 µM
same,effect on vascular relaxation in the presence of nifedipine,[3],did not appear to significantly affect vascular relaxation
same,"angiotensin induced contraction, area under the curve",[4],increased angiotensin induced contraction
same,level of phosphorylated eNOS,[5],increasing level of phosphorylated eNOS corresponded to the increasing CFZ concentration
same,protein expression level of total eNOS,[5],remained the same
same,percent contraction under eNOS inhibition (limited NO availability),"[6]; 100 μM L-NAME and 10 μM indomethacin 10 minutes prior to 2-hour CFZ treatment, vs vehicle (FIG. 1B)",significant but minor increase of percent contraction
same,vascular tone (contraction normalized to 80 mM KPSS),"[6]; 100 μM LNAME+10 μM indomethacin, 2.7 μM CFZ for 3 hour, vs vehicle (FIG. 10)",increase in vascular tone compared to vehicle
same,percent contraction (basal vascular tone),"[6]; rings pretreated with CFZ without L-NAME, compared with vehicle control (FIG. 1A)",did not affect vascular tone
